The source of these data is EP0167553B1, “NEW THERAPEUTICAL APPLICATION OF AN INDANE DIONE DERIVATIVE AND PHARMACEUTICAL COMPOSITIONS INTENDED TO SAID UTILIZATION” (priority 1983, dated 1985).

Data set [1] can be described thus: Acute toxicity, single administration, intraperitoneal route. The data set is classed as in vivo. The conditions noted are these: mouse, in vivo, ip; for LD50 at 360 h: read-out: DL50; for mortality at 360 h: single dose. On the procedure:
(§1) Souris SWISS mâles et femelles de 22 à 25g de poids corporel. Animaux EOPS.
(§2) Sauf mention contraire précisée dans les tableaux de résultats, 10 animaux par dose, sexe et cage en MAKROLON SAFI@ de 40/25 cm. Litière de copeaux de bois blanc. Alimentation standard pour rats et souris UAR et eau ordinaire à volonté.
(§3) Ils sont administrés sans jeûne préalable: • - par voie digestive (intubation gastrique par sonde oesophagienne métallique) à raison de 0,5 ml ou 1 ml pour 20 g de poids corporel d'une suspension aqueuse à 3p.100 en gomme arabique du dérivé testé. • - par voie intrapéritonéale à raison de 0,5 ml ou 1 ml pour 20 g d'une suspension du dérivé testé dans le soluté isotonique de chlorure de sodium à 3p.100 en gomme arabique.
(§4) Pendant 6 heures après l'administration unique, puis tous les jours pendant 15 jours.
(§5) S'il y a lieu, les doses létales cinquante (DL50) sont calculées selon les méthodes de: • - Behrens et Karber (B.K.) • - Miller et Tainter (M.T.), cette dernière méthode permettant d'attribuer, pour le seuil de probabilité de P = 0,05 un intervalle de confiance aux DL 50.
(§6) En outre, sont déterminées les DLO et DL100. • - DLO = DMT: Dose Maxima toujours tolérée • - DL100 = DmM: Dose minima toujours Mortelle.

Data set [2] has as its system Souris SWISS. The description is as above. The data set is classed as in vivo. The note with it: for DLO: DLO = Dose Maxima toujours tolérée. On the procedure:
as §1, §2, §3, §4, §5, §6

Data set [3] has as its system Rats: Wistar femelles. The data set is described as follows: Atherogenic diet (modified Aubert technique): macroscopic examination of the aorta. It counts as in vivo, Rat Wistar. The conditions noted are these: for Intensité des lésions Cotation: scale Stade 0 to Stade 5. An excerpt: La technique utilisée est celle, légèrement modifiée, de AUBERT D., FERAUD J.C., LACAZE B., PEPINO., PANAK E. et PODESTA M. "Athérogénèse expérimentale chez le Rat Wistar". ATHEROSCLEROSIS 2Q (1974) 263 - 280.
• - Rats: Wistar femelles, E.O.P.S. en provenance de l'élevage EVIC-CEBA. • - Poids corporel: 160 180 g au départ de l'étude • - Alimentation: UAR A03, enrichi en cholestérol (0,5 %) et en Acide chloique (0,5 %). • - Eau de boisson: eau de ville. • - 15 animaux par lot et par cage MAKROLON SAFI® de 59 x 38,5 cm sur litière de copeaux de bois blanc dépoussiérés. • - Cages placées dans un module animalerie climatisé (20°C * 1°C), à l'humidité constante (50 % ± 10 %). Durée d'éclairement: 12 heures par jour (7 h à 19 h). • - Administration des produits: Après 15 jours de régime athéromateux, on leur administre par voie orale pendant 4 jours 250 000 Ul/kg de vitamine D2 (Stérogyl 15 H) en solution dans l'huile d'olive. On administre ensuite les produits à étudier pendant 4 semaines dès la fin de l'administration de l'agent lésionnel.
En fin d'étude, tous les animaux sont sacrifiés par ponction subtotale du sang à l'aorte abdominale après anesthésie au pentobarbital sodique. On prélève le coeur, le foie et l'aorte sur laquelle on effectue la cotation du pouvoir athérogène. Pour ce faire, les aortes sont coupées longitudinalement puis étalées pour permettre une vue d'ensemble du revêtement endothélial depuis les valvules aortiques jusqu'à la bifurcation du tronc coeliaque (segment inférieur de l'aorte thoracique).
L'aorte est séparée en 2 zones: • - Zone 1: Valvules aortiques - premières artères intercostales • - Zone 2: premières artères intercostales - bifurcation du tronc coeliaque.
L'intensité des dépôts athéromateux est évaluée selon les critères suivants: • - Stade 0: Absence de dépôts • - Stade 1: Dépôts discrets ([…]) peu nombreux • - Stade 2: Dépôts discrets nombreux • - Stade 3: Dépôts importants (> 1 mm) nombreux • - Stade 4: Dépôts très importants ou très nombreux mais laissant quelques zones non infiltrées. • - Stade 5: Dépôts sur tout l'endothélium.
Deux paramètres sont à prendre en considération: • 1. Le nombre d'animaux présentant des lésions macroscopiques, dont le pourcentage d'animaux atteints. • 2. L'intensité des lésions observées cotées selon les indications fournies précédemment.

Like-named read-outs stand apart in the source and are kept apart here.

In the case of `CCOC(=O)C(C)(C)Oc1ccc(Cl)cc1` [Clofibrate], in data set [1] (voie intrapéritonéale, mâles, "de l'ordre de"), the LD50 at 360 h is roughly 1850 mg/kg. In data set [2] (mouse, in vivo, ip, 21600 min), the DL50 is on record as roughly 1700 mg/kg. The “Intensité des lésions Cotation” value in data set [3] (100 mg/kg) is reported as 2.00.
Turning to `COc1ccc(C(=O)CC2(O)C(=O)c3ccccc3C2=O)cc1OC` [Produit de l'invention, 2-[(3,4-dimethoxybenzoyl)methyl] 2-hydroxy 1,3-dioxo indane], the mortality at 360 h in data set [1] (2000 mg/kg, 2000 mg/kg IP, read-out: Létalite sur 10 souris Femelles) was 0%; in data set [1] (2000 mg/kg, 2000 mg/kg IP, read-out: Létalite sur 10 souris Mâles), 0%; in data set [1] (2500 mg/kg, 2500 mg/kg IP, read-out: Létalite sur 10 souris Femelles), 10%; in data set [1] (2500 mg/kg, 2500 mg/kg IP, read-out: Létalite sur 10 souris Mâles), 10%; in data set [1] (3000 mg/kg, 3000 mg/kg IP, read-out: Létalite sur 10 souris Femelles), 60%; in data set [1] (3000 mg/kg, 3000 mg/kg IP, read-out: Létalite sur 10 souris Mâles) it was 30%. Further, the mortality at 360 h in data set [1] (3500 mg/kg, 3500 mg/kg IP, read-out: Létalite sur 10 souris Femelles) stood at 80%; in data set [1] (3500 mg/kg, 3500 mg/kg IP, read-out: Létalite sur 10 souris Mâles) it was 50%; in data set [1] (4000 mg/kg, 4000 mg/kg IP, read-out: Létalite sur 10 souris Femelles), 100%; in data set [1] (4000 mg/kg, 4000 mg/kg IP, read-out: Létalite sur 10 souris Mâles), 80%; in data set [1] (4500 mg/kg, 4500 mg/kg IP, read-out: Létalite sur 10 souris Femelles), 100%; in data set [1] (4500 mg/kg, 4500 mg/kg IP, read-out: Létalite sur 10 souris Mâles), 100%. In addition, the mortality at 360 h amounted to 100% in data set [1] (5000 mg/kg, 5000 mg/kg IP, read-out: Létalite sur 10 souris Femelles) and 100% in data set [1] (5000 mg/kg, 5000 mg/kg IP, read-out: Létalite sur 10 souris Mâles). The LD50 at 360 h in data set [1] (Souris Femelles, method Behrens et Karber (B.K.)) is 3000 mg/kg; in data set [1] (Souris Femelles, method Miller et Tainter (M.T.), confidence interval P = 0,05), 3000 ± 145 mg/kg; in data set [1] (Souris Mâles, method Behrens et Karber (B.K.)), 3400 mg/kg; in data set [1] (Souris Mâles, method Miller et Tainter (M.T.), confidence interval P = 0,05), 3350 ± 190 mg/kg; in data set [1] (voie intrapéritonéale, sex not specified, "de l'ordre de"), roughly 3000 mg/kg. The DLO in data set [2] (IP, Souris Femelles) was 2000 mg/kg; in data set [2] (IP, Souris Mâles), 2000 mg/kg. For the same molecule, the “La mort survient par arrêt respiratoire en” value in data set [2] (IP, time to death after injection) is given as 24 - 48 heures. In addition, the “Animaux Atteints Score Clofibrate” value in data set [3] (100 mg/kg) came to 1.69. For the same molecule, the “Intensité des lésions Score Clofibrate” value in data set [3] (100 mg/kg) was found to be 0.88. In addition, in data set [3] (100 mg/kg), the “Observations Macroscopiques Score Total” value stood at 2.57. In data set [3] (100 mg/kg, animals with macroscopic lesions), the “Animaux Atteints %” value turned out to be 69.23%. In addition, the “Intensité des lésions Cotation” value in data set [3] (100 mg/kg) was determined as 2.08. Also, the “activité sur l'évalution des lésions macroscopiques” value in data set [3] (compared with Clofibrate at the same dose) is “plus actif”.
